Assay results: patent US20230143553A1, “PRECISION DELIVERY OF MULTI-SCALE PAYLOADS TO TISSUE-SPECIFIC TARGETS IN PLANTS” (MASSACHUSETTS INSTITUTE OF TECHNOLOGY, priority 2020, published 2023)

Tests used:
xylem = experiment: Phytoinjector delivery to xylem of tomato, dye transport
Source text: Based on these parameters, phytoinjectors were designed with a tip diameter smaller than 35 μm and 10 μm for xylem and phloem, respectively (FIG. 1B, FIG. 13C and FIG. 13D). […] To investigate payload delivery in planta, each payload was loaded to phytoinjectors at the point of material assembly before drying. […] The injected petioles were sliced along the transverse section downstream and upstream at various distances from the injection site to investigate the presence of the delivered dyes. […] In xylem, transport analysis was conducted by tangential sectioning of the stem (FIG. 3E). […] To quantify payloads transport, the fluorescence intensity was integrated (see FIG. 3E). The normalized intensity distribution evolves spatially and temporally (FIG. 3F).

petiole's xylem = experiment: Luciferin-luciferase bioluminescent reaction after phytoinjector delivery into petiole xylem; format: in vivo, tomato (Solanum lycopersicum); settings: luciferin in petiole's xylem; other reagents by foliar infiltration
Source text: The phytoinjectors were applied in petiole vasculature near the leaflet to facilitate observation and imaging. At first, luciferin was deployed in the petiole's xylem while the other reagents were delivered by foliar infiltration to the leaf.

5(6)-carboxyfluorescein diacetate was tested, and the “transport distance upstream of injection site” value (xylem) was 1 cm and the “transport distance downstream of injection site” value (xylem; from root to leaves) was “more than 7 cm”.
With `O=C(O)[C@H]1CSC(c2nc3ccc(O)cc3s2)=N1` [luciferin] the “luminescence of leaf tissue after delivery” value (petiole's xylem) was “showed luminescence”.
